Results: US12016860B2, “Combination therapies with Cbl-b inhibitor compounds” (Nurix Therapeutics, Inc., priority 2021, dated 2024)

What was measured:
[1] = tested on: BT549 (BRCA wild type) cells; assay: Caspase 3/7 apoptosis Incucyte assay with olaparib, BT549; format: cell-based; conditions: 1 μM compound 23, 0.05 μM olaparib, vs 0.05% DMSO, combination also vs single agents p<0.0001
Procedure: (§1) BT549 (BRCA wild type) (A) and DoTc 4510 (BRCA2 mutated) (B) cells were seeded in duplicate into tissue culture treated black-sided, clear-bottom 96-well plates at 5,000^cells/well and allowed to adhere and establish for 24 h. Cells were treated with indicated concentrations of DMSO, compound 23, or Olaparib (FIGS. 13A and 13B) either alone or in combination and were labelled with 1× Essen Bioscience IncuCyte® Caspase-3/7 Green Reagent (final concentration 5 μM). Treated plates were imaged every 2 hours for 72 hours with the IncuCyte® S3 Live-Cell Analysis System. At each timepoint, one image per well was taken in both brightfield and FITC channels on the IncuCyte® S3 Live-Cell Analysis System. Images were analyzed for number of green objects per mm^2 using the IncuCyte S3 v2017A software.
Using a caspase 3/7 apoptosis Incucyte assay, the effect of compound 23, PARPi and the combination of compound 23, and PARPi on tumor cell apoptosis was assessed in both BRCA wild type and mutated tumor cell lines in vitro.

[2] = tested on: DoTc 4510 (BRCA2 mutated) cells; assay: Caspase 3/7 apoptosis Incucyte assay with olaparib, DoTc 4510; format: cell-based; conditions: vs 0.05% DMSO, combination also vs single agents p<0.0001
Procedure: as §1

BT549 tumor cell line = assay: Caspase 3/7 apoptosis Incucyte assay with paclitaxel, BT549; format: cell-based; conditions: 0.1 μM compound 23, 0.002 μM paclitaxel, vs 0.05% DMSO, combination also vs single agents p<0.0001
Procedure: as §1, with “BT549” for “BT549 (BRCA wild type) (A) and DoTc 4510 (BRCA2 mutated) (B)”, “5,000 ^cells/well” for “5,000^cells/well”, “with” for “with indicated concentrations of”, “Paclitaxel” for “Olaparib (FIGS. 13A and 13B)”, “48” for “72”
Using a caspase 3/7 apoptosis Incucyte® assay, the effect of compound 23, paclitaxel and the combination of compound 23 and paclitaxel on tumor cell apoptosis was assessed in the BT549 tumor cell line (a mammary gland carcinoma) in vitro.

Raji cells = assay: Raji human non-Hodgkin's lymphoma model in SCID mice, combination with rituximab
Procedure: Female CB17 mice with severe combined immunodeficiency (SCID) were intravenously (IV) injected in the tail vein with Raji cells on Day 0 and treated from Day 5 to Day 37 by administration of either: vehicle (0.5% methylcellulose, 0.2% Polysorbate 80 in deionized water+1 eq HCl) daily, orally (PO) or compound 23 at 30 mg/kg daily, PO. Anti-CD20 antibody (rituximab) at 20 mg/kg was intraperitoneally (IP) administered on Day 5, 10, and 15, either alone or in combination with compound 23 at 30 mg/kg daily, PO.

Compound: O=C(c1cc(Cc2n[nH]c(=O)c3ccccc23)ccc1F)N1CCN(C(=O)C2CC2)CC1 [olaparib, reference compound]
- tumor cell apoptosis (caspase 3/7) [1]: did not undergo a significant increase in apoptosis
- tumor cell apoptosis (caspase 3/7) [2]: did not significantly increase tumor cell apoptosis

Compound: CC(=O)O[C@H]1C(=O)[C@@]2(C)[C@H]([C@H](OC(=O)c3ccccc3)[C@]3(O)C[C@H](OC(=O)[C@H](O)[C@@H](NC(=O)c4ccccc4)c4ccccc4)C(C)=C1C3(C)C)[C@]1(OC(C)=O)CO[C@@H]1C[C@@H]2O [paclitaxel, reference compound]
- tumor cell apoptosis (caspase 3/7) (BT549 tumor cell line): did not undergo a significant increase in apoptosis

Compound: rituximab [reference compound]
- survival compared to untreated mice (Raji cells; compound 23 30 mg/kg daily PO, rituximab 20 mg/kg IP Day 5, 10, 15, p<0.0001): significantly higher
- survival compared to mice treated with the combination of compound 23 and rituximab (Raji cells; p<0.0001): significantly lower
